Results published in patent US20240156861A1, “Cisplatin particles and uses thereof” (CRITITECH, INC., priority 2022, published 2024).
Values joined by “and” are separate entries in the source; they are usually repeats but may differ in a detail not shown here. Equal values may be shown once.

What was measured:
Type in all cases: in vivo, female athymic nude mice
[1] = Platinum blood to tumor-site tissue concentration ratios in H69 xenograft mice; details: for Individual platinum blood to tumor-site tissue concentration ratio: individual animals
Procedure: (§1) A total of 130 female athymic nude mice bearing the H69 human lung carcinoma xenograft were assigned to 10 treatment groups. Group 1 (N=5 females) served as the no treatment control. All intratumoral (IT) injections were delivered as single 25 μL injections. […] The maximum concentration of cisplatin solution and LSAM-Cisplatin suspension is 1 mg/mL and 10 mg/mL, respectively. The IT maximum feasible dose (MFD) for cisplatin solution is 25 μg and 250 μg for LSAM-Cisplatin suspension. Group 2 (N=10 females) was administered 47.5% ethanol/47.5% glycerin/5% water IT on Study Days 1 and 16 and served as control. Group 3 (N=20 females) received 133 μg cisplatin intraperitoneal (IP), considered the standard of care (SOC), once weekly for 3 cycles (Days 1, 8, and 15. Group 4 (N=5) was administered a single 125 μg large surface area microparticle (LSAM)-Cisplatin IT injection on Day 1. Group 5 (N=5 females) received a single 187.5 μg LSAM-Cisplatin IT injection on Day 1. Group 6 (N=5 females) was administered a single 250 μg LSAM-Cisplatin IT injection on Day 1. Group 7 (N=20 females) received single 25 μg cisplatin IT injections on Days 1 and 16. Group 8 (N=20 females) received single 125 μg LSAM-Cisplatin IT injections on Days 1 and 16. Group 9 (N=20 females) received single 187.5 μg LSAM-Cisplatin IT injections on Days 1 and 16. Group 10 (N=20 females) received single 250 μg LSAM-Cisplatin IT injections on Days 1 and 16. One hour postdose on Day 1, blood and tumor tissue were collected for determination of platinum concentrations from 3 Group 2 females and 5 females from Groups 3 and 7-10. On Days 8, 16 (predose) and 28, blood and tumor tissue were collected for determination of platinum concentrations from 5 females/Study Day from Groups 3 and 7-10. Total platinum concentrations in blood and tumor tissues were determined by inductively coupled plasma mass spectrometry (ICP-MS).
(§2) All blood and tumor-site tissue platinum concentrations that were reported as BLQ were considered as zero for statistical purposes. Mean and standard deviation are the only statistics reported for blood and tumor-site tissue platinum concentrations and platinum blood to tumor tissue ratios. Composite maximum observed concentration (Cmax), time of Cmax (Tmax), and area under the concentration-time curve (AUC) values for platinum in blood and tumor tissue following single and repeated administration of cisplatin or LSAM-Cisplatin are reported.
Platinum Cmax, Tmax, and AUC values for single-dose blood and tumor-site tissue data are provided in Table 8 and Table 9, respectively. Platinum Cmax, Tmax, and AUC values for multi-dose blood and tumor-site tissue data are provided in Table 10 and Table 11, respectively. Mean single-dose blood platinum concentrations are plotted in FIG. 20. Mean single-dose tumor-site tissue platinum concentrations are plotted in FIG. 21. Mean multiple-dose blood platinum concentration data are plotted in FIG. 22. Mean multiple-dose tumor-site tissue platinum concentration data are plotted in FIG. 23.

[2] = tested on: H69 human lung carcinoma xenograft; assay: Tumor-site tissue platinum concentrations and PK parameters by ICP-MS in H69 xenograft mice;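 as to Individual Tumor-Site Tissue Platinum Concentrations: unit μg/g tissue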;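 as to Mean Tumor-Site Tissue Platinum Concentrations: unit μg/g tissue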
Procedure: as §1
(§3) The LSAM-Cisplatin pharmacology study was conducted to: • Quantitate platinum content in whole blood and tumors to animals administered cisplatin IP (standard of care, SOC), the MFD of IT cisplatin, and IT LSAM- Cisplatin at the maximum feasible dose (MFD) and two lower doses • Evaluate tumor response • Evaluate increased doses of IT LSAM-Cisplatin up to 2X systemic maximum tolerated dose (MTD) • Evaluate one vs two injections • Evaluate recurrences if tumors regressed
(§4) Blood and tumor-site tissue were collected from each treatment group according to Table 4.
as §2

[3] = Blood platinum concentrations and PK parameters by ICP-MS in H69 xenograft mice
Procedure: as §1, §3, §4, §2

[4] = Group 3: 6 mg/kg IP on Days 1, 8, 15, Day 1 (1 hour postdose)
[5] = Group 3: 6 mg/kg IP on Days 1, 8, 15, Day 1 (1 hour postdose), 6 mg/kg
[6] = Group 3: 6 mg/kg IP on Days 1, 8, 15, Day 8 (pre-dose)
[7] = Group 3: 6 mg/kg IP on Days 1, 8, 15, Day 16
[8] = Group 3: 6 mg/kg IP on Days 1, 8, 15, Day 16, 6 mg/kg
[9] = Group 3: 6 mg/kg IP on Days 1, 8, 15, Day 28
[10] = Group 3: 6 mg/kg IP on Days 1, 8, 15, Day 28, 6 mg/kg
[11] = multiple doses, 6 mg/kg IP on Days 1, 8, and 15
[12] = multiple doses, ~1.1 mg/kg IT on Days 1 and 16
[13] = single dose Day 1, ~1.1 mg/kg IT

## N.N.[Cl][Pt][Cl] [Cisplatin]
[1]; Group 3, 6 mg/kg cisplatin IP on Days 1, 8, and 15, sampling Day 1
  Individual platinum blood to tumor-site tissue concentration ratio: 1.084 and 0.775 and 0.134 and 0.994
[1]; Group 3, 6 mg/kg cisplatin IP on Days 1, 8, and 15, sampling Day 1, N=4
  Mean platinum blood to tumor-site tissue concentration ratio: 0.747
[1]; Group 3, 6 mg/kg cisplatin IP on Days 1, 8, and 15, sampling Day 16
  Individual platinum blood to tumor-site tissue concentration ratio: 1.174 and 1.120 and 1.000 and 0.424 and 1.188
[1]; Group 3, 6 mg/kg cisplatin IP on Days 1, 8, and 15, sampling Day 16, N=5
  Mean platinum blood to tumor-site tissue concentration ratio: 0.981
[1]; Group 3, 6 mg/kg cisplatin IP on Days 1, 8, and 15, sampling Day 28
  Individual platinum blood to tumor-site tissue concentration ratio: 0.506 and 0.267
[1]; Group 3, 6 mg/kg cisplatin IP on Days 1, 8, and 15, sampling Day 28, N=2
  Mean platinum blood to tumor-site tissue concentration ratio: 0.386
[1]; Group 7, ~1.1 mg/kg cisplatin IT on Days 1 and 16, sampling Day 1, 1.1 mg/kg
  Individual platinum blood to tumor-site tissue concentration ratio: 0.011 and 0.018 and 0.019 and 0.022 and 0.016
[1]; Group 7, ~1.1 mg/kg cisplatin IT on Days 1 and 16, sampling Day 1, N=5
  Mean platinum blood to tumor-site tissue concentration ratio: 0.017
[1]; Group 7, ~1.1 mg/kg cisplatin IT on Days 1 and 16, sampling Day 8, 1.1 mg/kg
  Individual platinum blood to tumor-site tissue concentration ratio: 0.023 and 0.000 and 0.020 and 0.026 and 0.053
[1]; Group 7, ~1.1 mg/kg cisplatin IT on Days 1 and 16, sampling Day 8, N=5
  Mean platinum blood to tumor-site tissue concentration ratio: 0.024
[1]; Group 7, ~1.1 mg/kg cisplatin IT on Days 1 and 16, sampling Day 16, 1.1 mg/kg
  Individual platinum blood to tumor-site tissue concentration ratio: 0.000 (3×) and 0.023
[1]; Group 7, ~1.1 mg/kg cisplatin IT on Days 1 and 16, sampling Day 16, N=4
  Mean platinum blood to tumor-site tissue concentration ratio: 0.006
[1]; Group 7, ~1.1 mg/kg cisplatin IT on Days 1 and 16, sampling Day 28, 1.1 mg/kg
  Individual platinum blood to tumor-site tissue concentration ratio: 0.003 and 0.008 and 0.009 and 0.007 and 0.025
[1]; Group 7, ~1.1 mg/kg cisplatin IT on Days 1 and 16, sampling Day 28, N=5
  Mean platinum blood to tumor-site tissue concentration ratio: 0.010
[1]; repeated IT administration of 1.1 mg/kg
  systemic exposure to platinum based on mean blood to tumor-site tissue ratios: negligible
[2]; [4]
  Mean Tumor-Site Tissue Platinum Concentrations: 0.734 µg/g
[2]; [5]
  Individual Tumor-Site Tissue Platinum Concentrations: 0.901 μg/g and BLQ (below the limit of quantitation (<0.650 μg/g) and treated as zero for statistical purposes) and 1.15 μg/g and 0.777 μg/g and 0.843 μg/g
[2]; [6]
  Individual Tumor-Site Tissue Platinum Concentrations: BLQ (below the limit of quantitation (<0.650 μg/g) and treated as zero for statistical purposes)
[2]; Group 3: 6 mg/kg IP on Days 1, 8, 15, Day 8 (pre-dose), BLQ treated as zero
  Mean Tumor-Site Tissue Platinum Concentrations: 0.00 µg/g
[2]; [7]
  Mean Tumor-Site Tissue Platinum Concentrations: 1.39 µg/g
[2]; [8]
  Individual Tumor-Site Tissue Platinum Concentrations: 0.753 µg/g and 1.17 µg/g and 1.27 µg/g and 2.62 µg/g and 1.12 µg/g
[2]; [9]
  Mean Tumor-Site Tissue Platinum Concentrations: 0.459 µg/g
[2]; [10]
  Individual Tumor-Site Tissue Platinum Concentrations: BLQ (below the limit of quantitation (<0.650 μg/g) and treated as zero for statistical purposes) (3×) and 0.933 μg/g and 1.36 μg/g
[2]; Group 7: 1.1 mg/kg IT on Days 1 and 16, Day 1 (1 hour postdose)
  Mean Tumor-Site Tissue Platinum Concentrations: 11.3 µg/g
[2]; Group 7: 1.1 mg/kg IT on Days 1 and 16, Day 1 (1 hour postdose), 1.1 mg/kg
  Individual Tumor-Site Tissue Platinum Concentrations: 14.4 µg/g and 13.2 µg/g and 9.66 µg/g and 8.68 µg/g and 10.4 µg/g
[2]; Group 7: 1.1 mg/kg IT on Days 1 and 16, Day 8
  Mean Tumor-Site Tissue Platinum Concentrations: 3.23 µg/g
[2]; Group 7: 1.1 mg/kg IT on Days 1 and 16, Day 8, 1.1 mg/kg
  Individual Tumor-Site Tissue Platinum Concentrations: 3.06 µg/g and 4.74 µg/g and 4.29 µg/g and 3.02 µg/g and 1.06 µg/g
[2]; Group 7: 1.1 mg/kg IT on Days 1 and 16, Day 16 (predose)
  Mean Tumor-Site Tissue Platinum Concentrations: 2.97 µg/g
[2]; Group 7: 1.1 mg/kg IT on Days 1 and 16, Day 16 (predose), 1.1 mg/kg
  Individual Tumor-Site Tissue Platinum Concentrations: 1.90 μg/g and 2.42 μg/g and 7.79 μg/g and 2.76 μg/g and BLQ (below the limit of quantitation (<0.650 μg/g) and treated as zero for statistical purposes)
[2]; Group 7: 1.1 mg/kg IT on Days 1 and 16, Day 28
  Mean Tumor-Site Tissue Platinum Concentrations: 9.11 µg/g
[2]; Group 7: 1.1 mg/kg IT on Days 1 and 16, Day 28, 1.1 mg/kg
  Individual Tumor-Site Tissue Platinum Concentrations: 20.2 µg/g and 8.89 µg/g and 6.35 µg/g and 7.97 µg/g and 2.16 µg/g
[2]; [11]
  Tumor-Site Tissue Platinum AUC0-t: 470 µg·h/g
  Tumor-Site Tissue Platinum Tmax: 384 h
[2]; [12]
  Tumor-Site Tissue Platinum AUC0-t: 3,728 μg · hr/g
  Tumor-Site Tissue Platinum Tmax: 1 h
[2]; single dose Day 1, 6 mg/kg IP
  Tumor-Site Tissue Platinum AUC0-192: 70.5 µg·h/g
  Tumor-Site Tissue Platinum Tmax: 1 h
[2]; [13]
  Tumor-Site Tissue Platinum AUC0-192: 1,393 μg · hr/g
  Tumor-Site Tissue Platinum AUC0-384: 1,988 μg · hr/g
  Tumor-Site Tissue Platinum Tmax: 1 h
[2]; ~1.1 mg/kg IT Days 1 and 16 versus 6 mg/kg IP Days 1, 8, 15
  mean Day 28 tumor-site tissue platinum concentrations, IT versus IP: greater than following IP administration
[3]; 6 mg/kg IP (SOC) versus ~1.1 mg/kg IT Days 1 and 16
  Day 28 blood platinum concentrations, IP versus IT: higher
[3]; [4]
  Mean Blood Platinum Concentrations: 793 ng/mL
[3]; [5]
  Individual Blood Platinum Concentrations: 977 ng/mL and 221 ng/mL and 891 ng/mL and 1040 ng/mL and 838 ng/mL
[3]; [6]
  Mean Blood Platinum Concentrations: 368 ng/mL
[3]; Group 3: 6 mg/kg IP on Days 1, 8, 15, Day 8 (pre-dose), 6 mg/kg
  Individual Blood Platinum Concentrations: 441 ng/mL and 304 ng/mL and 428 ng/mL and 241 ng/mL and 426 ng/mL
[3]; [7]
  Mean Blood Platinum Concentrations: 1180 ng/mL
[3]; [8]
  Individual Blood Platinum Concentrations: 884 ng/mL and 1310 ng/mL and 1270 ng/mL and 1110 ng/mL and 1330 ng/mL
[3]; [9]
  Mean Blood Platinum Concentrations: 396 ng/mL
[3]; [10]
  Individual Blood Platinum Concentrations: 493 ng/mL and 472 ng/mL and 363 ng/mL and 188 ng/mL and 465 ng/mL
[3]; Group 7: ~1.1 mg/kg IT on Days 1 and 16, Day 1 (1 hour postdose)
  Mean Blood Platinum Concentrations: 189 ng/mL
[3]; Group 7: ~1.1 mg/kg IT on Days 1 and 16, Day 1 (1 hour postdose), 1.1 mg/kg
  Individual Blood Platinum Concentrations: 160 ng/mL and 242 ng/mL and 181 ng/mL and 193 ng/mL and 171 ng/mL
[3]; Group 7: ~1.1 mg/kg IT on Days 1 and 16, Day 8
  Mean Blood Platinum Concentrations: 57.6 ng/mL
[3]; Group 7: ~1.1 mg/kg IT on Days 1 and 16, Day 8, 1.1 mg/kg
  Individual Blood Platinum Concentrations: 69.9 ng/mL and BLQ (below the limit of quantitation (<50 ng/mL) and treated as zero for statistical purposes) and 86.7 ng/mL and 79 ng/mL and 52.6 ng/mL
[3]; Group 7: ~1.1 mg/kg IT on Days 1 and 16, Day 16 (predose)
  Mean Blood Platinum Concentrations: 11.4 ng/mL
[3]; Group 7: ~1.1 mg/kg IT on Days 1 and 16, Day 16 (predose), 1.1 mg/kg
  Individual Blood Platinum Concentrations: BLQ (below the limit of quantitation (<50 ng/mL) and treated as zero for statistical purposes) (4×) and 56.8 ng/mL
[3]; Group 7: ~1.1 mg/kg IT on Days 1 and 16, Day 28
  Mean Blood Platinum Concentrations: 61.1 ng/mL
[3]; Group 7: ~1.1 mg/kg IT on Days 1 and 16, Day 28, 1.1 mg/kg
  Individual Blood Platinum Concentrations: 68.1 ng/mL and 68.3 ng/mL and 57.8 ng/mL and 57.4 ng/mL and 53.8 ng/mL
[3]; [11]
  Blood Platinum AUC0-t: 486,824 ng · hr/mL
  Blood Platinum Cmax: 1180 ng/mL
  Blood Platinum Tmax: 384 h
[3]; [12]
  Blood Platinum AUC0-t: 40,709 ng · hr/mL
  Blood Platinum Cmax: 189 ng/mL
  Blood Platinum Tmax: 1 h
[3]; single dose Day 1, 6 mg/kg IP
  Blood Platinum AUC0-192: 111,272 ng · hr/mL
  Blood Platinum Cmax: 793 ng/mL
  Blood Platinum Tmax: 1 h
[3]; [13]
  Blood Platinum AUC0-192: 23,645 ng · hr/mL
  Blood Platinum AUC0-384: 30,269 ng · hr/mL
  Blood Platinum Cmax: 189 ng/mL
  Blood Platinum Tmax: 1 h
